The values that follow are results of earlier work, collected in paper PMC8245892, “Pharmacokinetics of a Single Dose of Turmeric Curcuminoids Depends on Formulation: Results of a Human Crossover Study” (The Journal of Nutrition, 2021).

Counter-ions that a name gives are not always drawn.

For data set [1] the following is noted: aqueous buffer (pH 5.0).
A further data set relates to NF-κB. More on the design: method as in PMID 24280069.
Details of data set [2]: method as in PMID 24280069.
Data set [3] concerns phorbol ester–induced PGE2 production. More on the design: method as in PMID 11221833. Particulars: human cells; compared with unconjugated curcumin.

In the case of curcumin, the Solubility – broadly, how much of the substance goes into solution per volume – in data set [1] is given as 11 ng/mL.

`COc1cc(C=CC(=O)CC(=O)C=Cc2ccc(OC3OC(C(=O)O)C(O)C(O)C3O)c(OC)c2)ccc1OC1OC(C(=O)O)C(O)C(O)C1O` (stereo not drawn) [diglucuronide]: the “Effect on NF-κB” value in the data set on NF-κB is “no effect”. The Antiproliferative activity entry in data set [2] is “very little antiproliferative activity”.

Consider `COc1cc(/C=C/C(O)=C/C(=O)/C=C/c2ccc(O[C@@H]3O[C@H](C(=O)O)[C@@H](O)[C@H](O)[C@H]3O)c(OC)c2)ccc1O` [curcumin monoglucuronide], for which the “Effect on NF-κB” value in the data set with NF-κB was “no effect”. Also, in data set [2], the Antiproliferative activity result is reported as “very little antiproliferative activity”.

As for `COc1cc(/C=C/C(O)=C/C(=O)/C=C/c2ccc(OS(=O)(=O)O)c(OC)c2)ccc1O` [curcumin sulfate], in data set [3], the “Reduction of phorbol ester–induced PGE2 production” value is “less effective than unconjugated curcumin”.
